Laboratory results taken from US20060069152A1, “Crystalline mycophenolate sodium” (priority 2004, published 2006).
Where two headings read alike, the source gives them in different places.

Assays:
[1] = Hygroscopicity: crystal forms exposed to different levels of humidity for one week, then analysed by TGA and XRD; format: physicochemical; conditions: for LOD(%): one week, TGA
Method: The hygroscopicity of monosodium mycophenolate crystal forms M1, M2, M3 and disodium mycophenolate crystal forms D1 and D1±D2 were also investigated. Form M1, M2, M3, D1 and D1±D2 were exposed to different level of humidity for one week and after equilibrium they were analysed by TGA and XRD for water content and crystal structure. Table 5 summarizes the results:
(§1) ARL X-ray powder diffractometer model X′TRA-030, Peltier detector, round standard aluminum sample holder with round zero background quartz plate was used. Scanning parameters: Range: 2-40 deg. 2 θ, continuous Scan, Rate: 3 deg./min. The accuracy of peak positions is defined as ±/−0.2 degrees due to experimental differences like instrumentations, sample preparations etc.
• TGA/SDTA 851^e, Mettler Toledo, Sample weight 7-15 mg. • Heating rate: 10° C./min., In N2 stream: flow rate=50 ml/min • Scan range: 30-250° C. Microscope
200 mg of each of the following samples: crystal Form M2, crystal Form M3 and crystal Form D1 were put at room temperature into a hygroscopicity chamber containing 100% relative humidity for one week. After one week they were measured again by XRD to determine their crystal forms.

[2] = Crystal form transformation by heating in an oven at atmospheric pressure, XRD before and after; format: physicochemical; conditions: for Crystal form after heating (XRD): 30 min., atmospheric pressure
Method: Representatives of all monosodium and disodium mycophenolate crystal forms, M1, M2, M1±M3, D1 and D1±D2 were heated in an oven at atmospheric pressure at 130° C. and 170° C. for 30 minutes. The samples were analyzed by XRD before and after heating.
as §1
200 mg of a mixture of Forms M1±M3 as identified by XRD, was put into an oven in a glass weighing bottle at 170° C. for 0.5 h. Then it was put into a desiccator and allowed to cool to room temperature. […] Transformation of M2 to M1, M3 to M1 and D1 to D2 by water vapors absorption

In the case of `COc1c(C)c2c(c([O-])c1C/C=C(\C)CCC(=O)[O-])C(=O)OC2.[Na+].[Na+]` [D1 + D2, disodium mycophenolate], the “LOD(%)” value ([1]; 20% RH) is reported as 10.2%, the “LOD(%)” value ([1]; 40% RH) is reported as 10.3% and the “LOD(%)” value ([1]; 80% RH) is reported as 16.9%. The “LOD(%)” value ([1]; 100% RH) was 42.1%.

For `COc1c(C)c2c(c([O-])c1C/C=C(\C)CCC(=O)[O-])C(=O)OC2.[Na+].[Na+]` [Form D1, disodium mycophenolate], the “LOD(%)” value ([1]; 40% RH, listed as D1) was 2.17%, the “LOD(%)” value ([1]; 60% RH) was 11.64% and the “LOD(%)” value ([1]; 80% RH, listed as D1) was 17.20%. For the same compound, the “LOD(%)” value ([1]; 100% RH, listed as D1) was 31.87% and the “relative stability of the form at high temperature” value [2] was “the most stable forms at high temperature”.

With `COc1c(C)c2c(c([O-])c1C/C=C(\C)CCC(=O)[O-])C(=O)OC2.[Na+].[Na+]` [Form D2, disodium mycophenolate] the “relative stability of the form at high relative humidity” value ([1]; room temperature, high relative humidity) was “the most stable form at room temperature, at high relative humidity”.

In the case of `COc1c(C)c2c(c(O)c1C/C=C(\C)CCC(=O)O)C(=O)OC2` [Form M1, mycophenolate sodium], the “relative stability of the form at high relative humidity” value [1] is reported as “the most stable form at room temperature, at high relative humidity”.

With `COc1c(C)c2c(c(O)c1C/C=C(\C)CCC(=O)O)C(=O)OC2` [Form M2, mycophenolate sodium] the “relative stability of the form at high temperature” value ([2]; heating at 130° C. and 170° C.) was “the most stable forms at high temperature”.

In the case of `COc1c(C)c2c(c(O)c1C/C=C(\C)CCC(=O)[O-])C(=O)OC2.[Na+]` [M1 + M3, mycophenolate sodium], the “Crystal form after heating (XRD)” value ([2]; 130° C.) is reported as “M3 > Ml” and the “Crystal form after heating (XRD)” value ([2]; 170° C.) is reported as “Form M2”.

In the case of `COc1c(C)c2c(c([O-])c1C/C=C(\C)CCC(=O)[O-])C(=O)OC2.[Na+].[Na+]` [disodium mycophenolate], the equilibrium water content ([1]; after humidity exposure) is reported as “about 17%”.
